{"source": "patent US20200390095A1", "about": "“USE OF ERYTHRITOL OR COMPOSITIONS COMPRISING SAME AS MAMMAL-SAFE INSECTICIDES” (Drexel University, priority 2014, published 2020)", "key": {"[1]": {"tested_on": "fruit flies", "test": "Longevity comparison of erythritol with other human-safe sweet alcohols", "format": "in vivo, Drosophila melanogaster", "conditions": "1 M sweetener in standard fly food, 17 days; for longevity compared to sucrose control: log rank test", "procedure": "An experiment was conducted to compare the effectiveness of erythritol with other human-safe sweet alcohols: D-mannitol, maltitol, sucrose, and xylitol. The concentration of all sweet alcohols were 1M. Flies were raised for 17 days on standard fly food that contained 1 M concentrations of each sweetener treatment. Death of flies was recorded daily as before; each treatment was replicated on three vials of 10 flies each for 30 subjects/treatment. Differences in longevity were analyzed using the Kaplan-Meier survival analysis log rank test, making all pairwise comparisons among treatments."}, "[2]": {"tested_on": "Drosophila melanogaster", "test": "Longevity assay of adult flies raised on food containing sweeteners", "format": "in vivo", "conditions": "repeat study with blue dye food", "procedure": "All animals were cultured at 25° C., kept at 50-60% humidity, and were raised under a standard 12:12 light dark cycle. For each experimental treatment, n=30 flies were tested in groups of 10 per tube, and three tubes per treatment. Tubes were kept on their side to minimize subject becoming mired in the food. Foods were replaced twice a week. The total number of fruit flies used for these experiments was 780, with 300 used for two initial trials testing mortality among store-brand sweeteners, 210 used for repeating this with blue dye and pure erythritol, 120 for choice trials and 150 for concentration trials.\nStandard Drosophila food for larval culturing consisted of water, cornmeal, yeast, molasses, and agar, as previously described (Chakraborty, et al., 2011, PLoS ONE 6: e20799). […] The addition of cornmeal and yeast assured the flies still received sufficient carbohydrates and protein in addition to any effects of the treatment additives.\nDrosophila food was combined with an equal weight/volume (0.0238 g/ml) of one non-nutritive sweetener (TRUVIA, EQUAL, SPLENDA, SWEET'NLOW, or PUREVIA) or a control nutritive sweetener (controls: sucrose or corn syrup). Wild type (Canton S) larvae were initially raised on the standard food, and 0-12 hour old adult flies were transferred to foods containing one non-nutritive sweetener or a control treatment. […] The number of dead flies were scored daily."}, "[3]": {"tested_on": "Drosophila melanogaster", "test": "Concentration trials of erythritol on fly longevity", "format": "in vivo", "procedure": "Standard fly foods were prepared as previously described, and then were treated with 2M, 1M, 0.5M and 0.1M concentrations of erythritol, using 0.5M sucrose as control. 0 to 24 hour-old Drosophila were placed on these foods and mortality was recorded daily for 35 days as above. Analyses were conducted with SPSS software v. 20 (IBM corporation 2011). Fly longevity data were analyzed using survival analysis with right-hand censoring of subjects that lived to the end of the study or were lost for reasons other than death. Test were run for differences in survival distributions [Pr(flies alive) versus insect age] using the log-rank (Mantel-Cox) test to make all pairwise comparisons among treatments within each experiment."}, "[4]": {"tested_on": "Drosophila melanogaster", "test": "Two-way choice experiments, longevity", "format": "in vivo", "conditions": "30 days", "procedure": "Foods containing 2 M erythritol, 1M erythritol and 1M sucrose were prepared for paired presentations in open choice tests. In each treatment one food type contained 0.05% brilliant blue FCF (Fisher 50-727-25). The blue dye allowed visual confirmation of feeding on the dyed food in the pair. The flies were presented with access to two food choices by using a modified cotton stopper with approximately a 1.5 cm diameter hole to connect each pair of food tubes. […] The final choice treatment was between blue 2M erythritol food and non-blue 1M sucrose food (this treatment provides a comparison with the 1 M erythritol/1 M erythritol treatment as a test of dilution of toxicity by alternative food sources; blue guts would confirm erythritol was being consumed in the presence of sucrose). The number of flies with visible blue gut contents and mortality daily were recorded for 30 days. Analyses were conducted with SPSS software v. 20 (IBM corporation 2011). Fly longevity data were analyzed using survival analysis with right-hand censoring of subjects that lived to the end of the study or were lost for reasons other than death. Test were run for differences in survival distributions [Pr(flies alive) versus insect age] using the log-rank (Mantel-Cox) test to make all pairwise comparisons among treatments within each experiment."}, "[5]": {"tested_on": "humans", "conditions": "oral consumption; cited from earlier work"}}}
{"compound": "OC[C@@H](O)[C@@H](O)[C@H](O)[C@H](O)CO", "note": "[D-mannitol]", "values": [{"measurement": "longevity compared to sucrose control", "setting": "[1]", "result": "slightly but significantly reduced longevity"}]}
{"compound": "OC[C@@H](O)[C@@H](O)CO", "note": "[erythritol, (2R,3S)-butane-1,2,3,4-tetraol]", "values": [{"measurement": "longevity, erythritol versus TRUVIA treatment", "setting": "[2]; 0.0238 g/ml", "result": "did not differ"}, {"measurement": "longevity compared to PUREVIA, EQUAL, sucrose and corn syrup", "setting": "[2]; 0.0238 g/ml of each sweetener", "result": "significant decreases in longevity"}, {"measurement": "longevity compared to control food containing 0.5M sucrose", "setting": "[3]; 0.1M erythritol in food, observations terminated at 35 days", "result": "no significant difference in longevity"}, {"measurement": "longevity compared to control food containing 0.5M sucrose", "setting": "[3]; 0.5M erythritol in food, 35 days", "result": "significant reductions in longevity"}, {"measurement": "longevity compared to control food containing 0.5M sucrose", "setting": "[3]; 1M erythritol in food, 35 days", "result": "significant reductions in longevity"}, {"measurement": "effect on longevity compared to all other treatments", "setting": "[3]; 2M erythritol in food, 35 days", "result": "significant and severe effect on longevity"}, {"measurement": "longevity relative to sucrose:sucrose choice", "setting": "[4]; choice between 1M sucrose and 1M erythritol", "result": "significantly decreased longevity"}, {"measurement": "longevity relative to sucrose:sucrose choice", "setting": "[4]; choice between 1M sucrose and 2M erythritol", "result": "significantly reduced"}, {"measurement": "survival distributions, 2M erythritol/1M sucrose choice versus 1M erythritol/1M erythritol", "setting": "[4]; choice chamber", "result": "nearly identical"}, {"measurement": "mean fly longevity", "setting": "[1]; mean ± SE", "result": "4.7 ± 0.15", "unit": "days"}, {"measurement": "tolerability of consumption by humans", "setting": "[5]", "result": "very well tolerated"}]}
{"compound": "OC[C@@H](O)[C@@H](O[C@H]1O[C@H](CO)[C@@H](O)[C@H](O)[C@H]1O)[C@H](O)[C@@H](O)CO", "note": "[maltitol]", "values": [{"measurement": "longevity compared to sucrose control", "setting": "[1]", "result": "did not differ from the control"}]}
{"compound": "OC[C@@H](O)[C@H](O)[C@@H](O)CO", "note": "[xylitol]", "values": [{"measurement": "longevity compared to sucrose control", "setting": "[1]", "result": "did not differ from the control"}]}
